Measured values reported in patent US11020395B2, “Cycloalkyl substituted triazole compounds as agonists of the APJ receptor” (AMGEN INC., priority 2016, dated 2021).
pEC50: −log10 of the molar value.

These molecules were tested against human APJ receptor (Homo sapiens (Human), UniProt P35414) (assay: [35S]GTPγS binding assay on membranes from CHO cells stably expressing human APJ receptor). Conditions: [35S]GTPγS SPA, read-out: Activity hAPJ SPA EC50 IP.
Assay type: biochemical
Experimental: [^35S]GTPγS Binding The human APJ receptor was cloned by polymerase chain reaction and the gene encoding the receptor was subcloned in pFLAG-CMV™-3 expression vector (Sigma, Saint Louis, Mo. USA) in-house at Amgen. A GTPγS binding assay was performed on membranes prepared from CHO cells stably expressing human APJ receptor. The optimum experimental conditions for the concentrations of GDP, MgCl2, and NaCl in the assay buffer were initially determined. […] Incubation was at RT for 90 min and the microplate was read using a ViewLux™ ultra HTS Microplate Imager (PerkinElmer, Inc.). All the results presented are means of several independent experiments and analyzed by non-linear regression methods using the commercially available program Prism (GraphPad, San Diego, Calif.) providing the EC50 values detailed in Table 25.

Sequence of human APJ receptor (P35414 whole entry): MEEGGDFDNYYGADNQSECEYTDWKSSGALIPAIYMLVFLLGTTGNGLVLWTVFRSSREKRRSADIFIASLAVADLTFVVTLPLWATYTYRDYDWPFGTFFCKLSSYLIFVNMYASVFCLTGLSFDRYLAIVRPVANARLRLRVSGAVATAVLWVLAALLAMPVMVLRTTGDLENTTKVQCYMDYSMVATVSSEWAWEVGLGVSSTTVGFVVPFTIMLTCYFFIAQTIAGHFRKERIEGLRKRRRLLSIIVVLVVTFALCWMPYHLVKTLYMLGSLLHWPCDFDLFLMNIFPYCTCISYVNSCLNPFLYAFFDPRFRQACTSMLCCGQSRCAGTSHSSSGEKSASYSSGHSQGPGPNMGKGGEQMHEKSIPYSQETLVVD

| Molecule | pEC50 |
| --- | --- |
| COc1cccc(OC)c1-n1c(NS(=O)(=O)[C@@H](C)[C@H](OC)c2ncc(Cl)cn2)nnc1C1CCC1C#N (single isomer, unassigned) [Example 169.0, (1R,2S)-1-(5-chloropyrimidin-2-yl)-N-(5-((1R,2S)-2-cyanocyclobutyl)-4-(2,6-dimethoxyphenyl)-4H-1,2,4-triazol-3-yl)-1-methoxypropane-2-sulfonamide or (1R,2S)-1-(5-chloropyrimidin-2-yl)-N-(5-((1S,2R)-2-cyanocyclobutyl)-4-(2,6-dimethoxyphenyl)-4H-1,2,4-triazol-3-yl)-1-methoxypropane-2-sulfonamide] | 7.68 |
| COc1cccc(OC)c1-n1c(NS(=O)(=O)[C@@H](C)[C@H](OC)c2ncc(C)cn2)nnc1[C@H]1C[C@H](Cl)C1 (single isomer, unassigned) [Example 191.0, (1R,2S)-N-(5-((1r,3S)-3-chlorocyclobutyl)-4-(2,6-dimethoxyphenyl)-4H-1,2,4-triazol-3-yl)-1-methoxy-1-(5-methylpyrimidin-2-yl)propane-2-sulfonamide or (1R,2S)-N-(5-((1s,3R)-3-chlorocyclobutyl)-4-(2,6-dimethoxyphenyl)-4H-1,2,4-triazol-3-yl)-1-methoxy-1-(5-methylpyrimidin-2-yl)propane-2-sulfonamide] | 8.12 |
| COc1cccc(OC)c1-n1c(NS(=O)(=O)[C@@H](C)[C@@H](OC(C)C)c2ncc(C)cn2)nnc1[C@@H]1CCC(=O)C1 (single isomer, unassigned) [Example 230.0, (1S,2S)-N-(4-(2,6-dimethoxyphenyl)-5-((R)-3-oxocyclopentyl)-4H-1,2,4-triazol-3-yl)-1-isopropoxy-1-(5-methylpyrimidin-2-yl)propane-2-sulfonamide or (1S,2S)-N-(4-(2,6-dimethoxyphenyl)-5-((S)-3-oxocyclopentyl)-4H-1,2,4-triazol-3-yl)-1-isopropoxy-1-(5-methylpyrimidin-2-yl)propane-2-sulfonamide] | 6.72 |
| COc1ncnc(OC)c1-n1c(NS(=O)(=O)[C@@H](C)[C@H](OC)c2ncc(Cl)cn2)nnc1[C@H]1CC[C@@H]1F (single isomer, unassigned) [Example 181.0, (1R,2S)-1-(5-chloropyrimidin-2-yl)-N-(4-(4,6-dimethoxypyrimidin-5-yl)-5-((1R,2S)-2-fluorocyclobutyl)-4H-1,2,4-triazol-3-yl)-1-methoxypropane-2-sulfonamide or (1R,2S)-1-(5-chloropyrimidin-2-yl)-N-(4-(4,6-dimethoxypyrimidin-5-yl)-5-((1S,2R)-2-fluorocyclobutyl)-4H-1,2,4-triazol-3-yl)-1-methoxypropane-2-sulfonamide] | 7.49 |
| (1R,2S)-1-(5-chloropyrimidin-2-yl)-N-(4-(2,6-dimethoxyphenyl)-5-((S)-spiro[2.2]pentan-1-yl)-4H-1,2,4-triazol-3-yl)-1-methoxypropane-2-sulfonamide or (1R,2S)-1-(5-chloropyrimidin-2-yl)-N-(4-(2,6-dimethoxyphenyl)-5-((R)-spiro[2.2]pentan-1-yl)-4H-1,2,4-triazol-3-yl)-1-methoxypropane-2-sulfonamide [Example 222.0] | 7.62 |
| COc1ncnc(OC)c1-n1c(NS(=O)(=O)[C@@H](C)[C@H](C)c2ncc(C)cn2)nnc1C1CCCC1 [Example 18.0, (2S,3R)-N-(5-cyclopentyl-4-(4,6-dimethoxypyrimidin-5-yl)-4H-1,2,4-triazol-3-yl)-3-(5-methylpyrimidin-2-yl)butane-2-sulfonamide] | 8.68 |
| COc1ncnc(OC)c1-n1c(NS(=O)(=O)[C@@H](C)[C@H](OC)c2ncc(Cl)cn2)nnc1[C@H]1C[C@@H](C)C1 [Example 186.0, (1R,2S)-1-(5-chloro-2-pyrimidinyl)-N-(4-(4,6-dimethoxy-5-pyrimidinyl)-5-(cis-3-methylcyclobutyl)-4H-1,2,4-triazol-3-yl)-1-methoxy-2-propanesulfonamide] | 9.05 |
| COc1ncnc(OC)c1-n1c(NS(=O)(=O)[C@@H](C)[C@H](C)c2ncc(C)cn2)nnc1C1CC2(CC2)C1 [Example 202.0] | 8.38 |
| COc1cccc(OC)c1-n1c(NS(=O)(=O)[C@@H](C)[C@H](OC)c2ncc(Cl)cn2)nnc1[C@H]1C[C@@H](C#N)C1 (single isomer, unassigned) [Example 121.0, (1R,2S)-1-(5-chloro-2-pyrimidinyl)-N-(5-(cis-3-cyanocyclobutyl)-4-(2,6-dimethoxyphenyl)-4H-1,2,4-triazol-3-yl)-1-methoxy-2-propanesulfonamide or (1R,2S)-1-(5-chloro-2-pyrimidinyl)-N-(5-(trans-3-cyanocyclobutyl)-4-(2,6-dimethoxyphenyl)-4H-1,2,4-triazol-3-yl)-1-methoxy-2-propanesulfonamide] | 8.27 |
| COc1cccc(OC)c1-n1c(NS(=O)(=O)[C@@H](C)[C@H](OC)c2ncc(Cl)cn2)nnc1C1CCC1 [Example 93.0, (1R,2S)-1-(5-chloropyrimidin-2-yl)-N-(5-cyclobutyl-4-(2,6-dimethoxyphenyl)-4H-1,2,4-triazol-3-yl)-1-methoxypropane-2-sulfonamide] | 9.04 |
| COc1cccc(OC)c1-n1c(NS(=O)(=O)[C@@H](C)[C@H](OC)c2ncc(Cl)cn2)nnc1C1CC(F)(F)C1 [Example 147.0] | 8.19 |
| COc1ncnc(OC)c1-n1c(NS(=O)(=O)[C@@H](C)[C@H](OC)c2ncc(Cl)cn2)nnc1[C@H]1CC[C@@H](C(F)F)CC1 (single isomer, unassigned) [Example 144.0, (1R,2S)-1-(5-chloro-2-pyrimidinyl)-N-(5-(cis-4-(difluoromethyl)cyclohexyl)-4-(4,6-dimethoxy-5-pyrimidinyl)-4H-1,2,4-triazol-3-yl)-1-methoxy-2-propanesulfonamide or (1R,2S)-1-(5-chloro-2-pyrimidinyl)-N-(5-(trans-4-(difluoromethyl)cyclohexyl)-4-(4,6-dimethoxy-5-pyrimidinyl)-4H-1,2,4-triazol-3-yl)-1-methoxy-2-propanesulfonamide] | 6.21 |
| COc1cccc(OC)c1-n1c(NS(=O)(=O)[C@@H](C)[C@H](OC)c2ncc(Cl)cn2)nnc1[C@H]1C[C@@H](C#N)C1 (single isomer, unassigned) [Example 122.0, (1R,2S)-1-(5-chloro-2-pyrimidinyl)-N-(5-(cis-3-cyanocyclobutyl)-4-(2,6-dimethoxyphenyl)-4H-1,2,4-triazol-3-yl)-1-methoxy-2-propanesulfonamide or (1R,2S)-1-(5-chloro-2-pyrimidinyl)-N-(5-(trans-3-cyanocyclobutyl)-4-(2,6-dimethoxyphenyl)-4H-1,2,4-triazol-3-yl)-1-methoxy-2-propanesulfonamide] | 7.55 |
| (1R,2S)-1-(5-chloropyrimidin-2-yl)-N-(5-((R)-2,2-dimethylcyclopropyl)-4-(tetrahydro-2H-pyran-4-yl)-4H-1,2,4-triazol-3-yl)-1-methoxypropane-2-sulfonamide or (1R,2S)-1-(5-chloropyrimidin-2-yl)-N-(5-((S)-2,2-dimethylcyclopropyl)-4-(tetrahydro-2H-pyran-4-yl)-4H-1,2,4-triazol-3-yl)-1-methoxypropane-2-sulfonamide [Example 20.0] | 6.08 |
